# Laboratory results from PubChem BioAssay (NCI).
#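 Compound exposure: 48 hours, 5 concentrations, 96-well plates. TGI marks complete inhibition of growth.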 Where a SMILES comes first, the peptide text is derived from it. The star is where a group is joined. CH2Cl = ClC*
# Legend:
# Test in all cases: NCI tumour cell line growth inhibition, 48 h
# LOX IMVI melanoma = system: LOX IMVI melanoma
# HCT-15 colon = system: HCT-15 colon
# OVCAR-4 ovarian = system: OVCAR-4 ovarian
# SK-MEL-2 melanoma = system: SK-MEL-2 melanoma
# HOP-62 NSCLC = system: HOP-62 NSCLC
# SN12C renal = system: SN12C renal
# MDA-N = system: MDA-N
# UACC-62 melanoma = system: UACC-62 melanoma
# UACC-257 melanoma = system: UACC-257 melanoma
# OVCAR-8 ovarian = system: OVCAR-8 ovarian
# HL-60(TB) leukemia = system: HL-60(TB) leukemia
# MDA-MB-231 breast = system: MDA-MB-231 breast
# SF-295 CNS = system: SF-295 CNS
# MDA-MB-435 = system: MDA-MB-435
# M14 melanoma = system: M14 melanoma
# NCI-H522 lung = system: NCI-H522 lung
# KM12 colon = system: KM12 colon
# CCRF-CEM leukemia = system: CCRF-CEM leukemia
# ACHN renal = system: ACHN renal
# COLO 205 colon = system: COLO 205 colon
# 786-0 renal = system: 786-0 renal
# NCI-H226 lung = system: NCI-H226 lung
# UO-31 renal = system: UO-31 renal
# T-47D breast = system: T-47D breast
# A549 NSCLC = system: A549 NSCLC
# MOLT-4 leukemia = system: MOLT-4 leukemia
# SK-MEL-28 melanoma = system: SK-MEL-28 melanoma
# SF-539 CNS = system: SF-539 CNS
# SK-MEL-5 melanoma = system: SK-MEL-5 melanoma
# SW-620 colon = system: SW-620 colon
# MALME-3M melanoma = system: MALME-3M melanoma
# HT29 colon = system: HT29 colon
# RPMI-8226 leukemia = system: RPMI-8226 leukemia
# SR leukemia = system: SR leukemia
# OVCAR-3 ovarian = system: OVCAR-3 ovarian
# NCI-H23 lung = system: NCI-H23 lung
# NCI/ADR-RES ovarian = system: NCI/ADR-RES ovarian
# NCI-H460 lung = system: NCI-H460 lung
# RXF 393 renal = system: RXF 393 renal
# CAKI-1 renal = system: CAKI-1 renal
# DU-145 prostate = system: DU-145 prostate
# U251 CNS = system: U251 CNS
# TK-10 renal = system: TK-10 renal
# EKVX NSCLC = system: EKVX NSCLC
# PC-3 prostate = system: PC-3 prostate
# OVCAR-5 ovarian = system: OVCAR-5 ovarian
# HCC-2998 colon = system: HCC-2998 colon
# HS 578T breast = system: HS 578T breast
# SF-268 CNS = system: SF-268 CNS
# IGROV1 ovarian = system: IGROV1 ovarian
# SNB-19 CNS = system: SNB-19 CNS
# BT-549 breast = system: BT-549 breast
# SK-OV-3 ovarian = system: SK-OV-3 ovarian
# A498 renal = system: A498 renal
# HCT-116 colon = system: HCT-116 colon
# HOP-92 NSCLC = system: HOP-92 NSCLC
# MCF7 breast = system: MCF7 breast
# SNB-75 CNS = system: SNB-75 CNS
# K-562 leukemia = system: K-562 leukemia
smiles,measurement,setting,value
Cn1c([N+](=O)[O-])cnc1CN1CCN(CCO)CC1,TGI,LOX IMVI melanoma,> 100 µM
same,TGI,HCT-15 colon,> 100 µM
same,TGI,OVCAR-4 ovarian,> 100 µM
same,TGI,SK-MEL-2 melanoma,> 100 µM
same,TGI,HOP-62 NSCLC,> 100 µM
same,TGI,SN12C renal,> 100 µM
same,TGI,MDA-N,> 100 µM
same,TGI,UACC-62 melanoma,> 100 µM
same,TGI,UACC-257 melanoma,> 100 µM
same,TGI,OVCAR-8 ovarian,> 100 µM
same,TGI,HL-60(TB) leukemia,> 100 µM
same,TGI,MDA-MB-231 breast,> 100 µM
same,TGI,SF-295 CNS,> 100 µM
same,TGI,MDA-MB-435,> 100 µM
same,TGI,M14 melanoma,> 100 µM
same,TGI,NCI-H522 lung,> 100 µM
same,TGI,KM12 colon,> 100 µM
same,TGI,CCRF-CEM leukemia,> 100 µM
same,TGI,ACHN renal,> 100 µM
same,TGI,COLO 205 colon,> 100 µM
same,TGI,786-0 renal,> 100 µM
same,TGI,NCI-H226 lung,> 100 µM
same,TGI,UO-31 renal,> 100 µM
same,TGI,T-47D breast,> 100 µM
same,TGI,A549 NSCLC,> 100 µM
same,TGI,MOLT-4 leukemia,> 100 µM
same,TGI,SK-MEL-28 melanoma,> 100 µM
same,TGI,SF-539 CNS,> 100 µM
same,TGI,SK-MEL-5 melanoma,> 100 µM
same,TGI,SW-620 colon,> 100 µM
same,TGI,MALME-3M melanoma,> 100 µM
same,TGI,HT29 colon,> 100 µM
same,TGI,RPMI-8226 leukemia,> 100 µM
same,TGI,SR leukemia,> 100 µM
same,TGI,OVCAR-3 ovarian,> 100 µM
same,TGI,NCI-H23 lung,> 100 µM
same,TGI,NCI/ADR-RES ovarian,> 100 µM
same,TGI,NCI-H460 lung,> 100 µM
same,TGI,RXF 393 renal,> 100 µM
same,TGI,CAKI-1 renal,> 100 µM
same,TGI,DU-145 prostate,> 100 µM
same,TGI,U251 CNS,> 100 µM
same,TGI,TK-10 renal,> 100 µM
same,TGI,EKVX NSCLC,> 100 µM
same,TGI,PC-3 prostate,> 100 µM
same,TGI,OVCAR-5 ovarian,> 100 µM
same,TGI,HCC-2998 colon,> 100 µM
same,TGI,HS 578T breast,> 100 µM
same,TGI,SF-268 CNS,> 100 µM
same,TGI,IGROV1 ovarian,> 100 µM
same,TGI,SNB-19 CNS,> 100 µM
same,TGI,BT-549 breast,> 100 µM
same,TGI,SK-OV-3 ovarian,> 100 µM
same,TGI,A498 renal,> 100 µM
same,TGI,HCT-116 colon,> 100 µM
same,TGI,HOP-92 NSCLC,> 100 µM
same,TGI,MCF7 breast,> 100 µM
same,TGI,SNB-75 CNS,> 100 µM
same,TGI,K-562 leukemia,> 100 µM
Cc1noc(NS(=O)(=O)c2ccc(NC(=O)c3ccc4nc5ccccc5c(Nc5ccc(S(=O)(=O)Nc6onc(C)c6C)cc5)c4c3)cc2)c1C,TGI,LOX IMVI melanoma,61.3 µM
same,TGI,HCT-15 colon,> 100 µM
same,TGI,OVCAR-4 ovarian,> 100 µM
same,TGI,SK-MEL-2 melanoma,> 100 µM
same,TGI,HOP-62 NSCLC,> 100 µM
same,TGI,SN12C renal,> 100 µM
same,TGI,MDA-N,> 100 µM
same,TGI,UACC-62 melanoma,> 100 µM
same,TGI,UACC-257 melanoma,> 100 µM
same,TGI,OVCAR-8 ovarian,> 100 µM
same,TGI,HL-60(TB) leukemia,> 100 µM
same,TGI,MDA-MB-231 breast,80.8 µM
same,TGI,SF-295 CNS,> 100 µM
same,TGI,MDA-MB-435,> 100 µM
same,TGI,M14 melanoma,> 100 µM
same,TGI,NCI-H522 lung,> 100 µM
same,TGI,KM12 colon,> 100 µM
same,TGI,CCRF-CEM leukemia,> 100 µM
same,TGI,ACHN renal,> 100 µM
same,TGI,COLO 205 colon,> 100 µM
same,TGI,786-0 renal,> 100 µM
same,TGI,NCI-H226 lung,> 100 µM
same,TGI,UO-31 renal,> 100 µM
same,TGI,T-47D breast,> 100 µM
same,TGI,A549 NSCLC,> 100 µM
same,TGI,MOLT-4 leukemia,> 100 µM
same,TGI,SK-MEL-28 melanoma,> 100 µM
same,TGI,SF-539 CNS,> 100 µM
same,TGI,SK-MEL-5 melanoma,> 100 µM
same,TGI,SW-620 colon,> 100 µM
same,TGI,MALME-3M melanoma,> 100 µM
same,TGI,HT29 colon,> 100 µM
same,TGI,RPMI-8226 leukemia,> 100 µM
same,TGI,SR leukemia,> 100 µM
same,TGI,OVCAR-3 ovarian,> 100 µM
same,TGI,NCI-H23 lung,> 100 µM
same,TGI,NCI/ADR-RES ovarian,> 100 µM
same,TGI,NCI-H460 lung,> 100 µM
same,TGI,RXF 393 renal,> 100 µM
same,TGI,CAKI-1 renal,> 100 µM
same,TGI,DU-145 prostate,> 100 µM
same,TGI,U251 CNS,> 100 µM
same,TGI,TK-10 renal,> 100 µM
same,TGI,EKVX NSCLC,> 100 µM
same,TGI,PC-3 prostate,> 100 µM
same,TGI,OVCAR-5 ovarian,> 100 µM
same,TGI,HCC-2998 colon,> 100 µM
same,TGI,HS 578T breast,> 100 µM
same,TGI,SF-268 CNS,> 100 µM
same,TGI,IGROV1 ovarian,> 100 µM
same,TGI,SNB-19 CNS,> 100 µM
same,TGI,BT-549 breast,88.8 µM
same,TGI,SK-OV-3 ovarian,> 100 µM
same,TGI,A498 renal,> 100 µM
same,TGI,HCT-116 colon,> 100 µM
same,TGI,HOP-92 NSCLC,> 100 µM
same,TGI,MCF7 breast,> 100 µM
same,TGI,SNB-75 CNS,> 100 µM
same,TGI,K-562 leukemia,60.7 µM
CC(=O)NC(CC(C)C)C(=O)NC(Cc1ccccc1)C(=O)CCl (stereo not drawn) (Ac-Leu-Phe-CH2Cl; configuration not given here),TGI,LOX IMVI melanoma,10.6 µM
same,TGI,HCT-15 colon,13.2 µM
same,TGI,OVCAR-4 ovarian,43.6 µM
same,TGI,SK-MEL-2 melanoma,27.4 µM
same,TGI,HOP-62 NSCLC,33.2 µM
same,TGI,SN12C renal,27 µM
same,TGI,MDA-N,32.9 µM
same,TGI,UACC-62 melanoma,19 µM
same,TGI,UACC-257 melanoma,22.4 µM
same,TGI,OVCAR-8 ovarian,19.6 µM
same,TGI,HL-60(TB) leukemia,> 21.3 µM
same,TGI,MDA-MB-231 breast,39.3 µM
same,TGI,SF-295 CNS,33.9 µM
same,TGI,MDA-MB-435,28 µM
same,TGI,M14 melanoma,21.1 µM
same,TGI,NCI-H522 lung,7.43 µM
same,TGI,KM12 colon,36 µM
same,TGI,CCRF-CEM leukemia,3.94 µM
same,TGI,ACHN renal,23.9 µM
same,TGI,COLO 205 colon,> 51.1 µM
same,TGI,786-0 renal,17 µM
same,TGI,NCI-H226 lung,39.1 µM
same,TGI,UO-31 renal,28.4 µM
same,TGI,T-47D breast,> 59.7 µM
same,TGI,A549 NSCLC,41.6 µM
same,TGI,MOLT-4 leukemia,4.53 µM
same,TGI,SK-MEL-28 melanoma,23.2 µM
same,TGI,SF-539 CNS,34.5 µM
same,TGI,SK-MEL-5 melanoma,22.5 µM
same,TGI,SW-620 colon,9.17 µM
same,TGI,MALME-3M melanoma,18.4 µM
same,TGI,HT29 colon,34.6 µM
same,TGI,RPMI-8226 leukemia,> 25 µM
same,TGI,SR leukemia,> 21.8 µM
same,TGI,OVCAR-3 ovarian,28.3 µM
same,TGI,NCI-H23 lung,30.3 µM
same,TGI,NCI/ADR-RES ovarian,50.1 µM
same,TGI,NCI-H460 lung,43.3 µM
same,TGI,RXF 393 renal,5.69 µM
same,TGI,CAKI-1 renal,32.1 µM
same,TGI,DU-145 prostate,17 µM
same,TGI,U251 CNS,30.5 µM
same,TGI,TK-10 renal,24.1 µM
same,TGI,EKVX NSCLC,38.4 µM
same,TGI,PC-3 prostate,30.7 µM
same,TGI,OVCAR-5 ovarian,32.4 µM
same,TGI,HCC-2998 colon,30.4 µM
same,TGI,HS 578T breast,36.4 µM
same,TGI,SF-268 CNS,50.4 µM
same,TGI,IGROV1 ovarian,31.6 µM
same,TGI,SNB-19 CNS,37.7 µM
same,TGI,BT-549 breast,28.4 µM
same,TGI,SK-OV-3 ovarian,32.3 µM
same,TGI,A498 renal,33.8 µM
same,TGI,HCT-116 colon,19.2 µM
same,TGI,HOP-92 NSCLC,16.5 µM
same,TGI,MCF7 breast,22.8 µM
same,TGI,SNB-75 CNS,28.1 µM
same,TGI,K-562 leukemia,10.7 µM
